# According to the NIST ThermoML archive (doi:10.1021/acs.jced.6b00497):
# Numbers after ± are expanded uncertainties.
# Conditions: Crystal; DTA
structure (smiles),measurement,value
O=C(O)c1cc(N=Nc2ccc(S(=O)(=O)Nc3ccccn3)cc2)ccc1O [Sulfasalazine],Normal melting temperature,220.00 ± 1 °C
